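1) Cells in 96-well plates. 2) Compound, 48 h, 5 concentrations. 3) Linear interpolation between surrounding doses. 4) Unreached endpoint = highest concentration. GI50 = concentration required for 50% inhibition of growth. The concentration for full growth arrest is given as TGI.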
Key:
Assay in all cases: NCI anticancer screen, dose series, 48 h
786-0 renal = tested on: 786-0 renal
A498 renal = tested on: A498 renal
A549 NSCLC = tested on: A549 NSCLC
ACHN renal = tested on: ACHN renal
BT-549 breast = tested on: BT-549 breast
CAKI-1 renal = tested on: CAKI-1 renal
CCRF-CEM leukemia = tested on: CCRF-CEM leukemia
COLO 205 colon = tested on: COLO 205 colon
DU-145 prostate = tested on: DU-145 prostate
EKVX NSCLC = tested on: EKVX NSCLC
HCC-2998 colon = tested on: HCC-2998 colon
HCT-116 colon = tested on: HCT-116 colon
HCT-15 colon = tested on: HCT-15 colon
HL-60(TB) leukemia = tested on: HL-60(TB) leukemia
HOP-62 NSCLC = tested on: HOP-62 NSCLC
HOP-92 NSCLC = tested on: HOP-92 NSCLC
HS 578T breast = tested on: HS 578T breast
HT29 colon = tested on: HT29 colon
IGROV1 ovarian = tested on: IGROV1 ovarian
K-562 leukemia = tested on: K-562 leukemia
KM12 colon = tested on: KM12 colon
LOX IMVI melanoma = tested on: LOX IMVI melanoma
M14 melanoma = tested on: M14 melanoma
MALME-3M melanoma = tested on: MALME-3M melanoma
MCF7 breast = tested on: MCF7 breast
MDA-MB-231 breast = tested on: MDA-MB-231 breast
MDA-MB-435 = tested on: MDA-MB-435
MOLT-4 leukemia = tested on: MOLT-4 leukemia
NCI-H226 lung = tested on: NCI-H226 lung
NCI-H23 lung = tested on: NCI-H23 lung
NCI-H460 lung = tested on: NCI-H460 lung
NCI-H522 lung = tested on: NCI-H522 lung
NCI/ADR-RES ovarian = tested on: NCI/ADR-RES ovarian
OVCAR-3 ovarian = tested on: OVCAR-3 ovarian
OVCAR-4 ovarian = tested on: OVCAR-4 ovarian
OVCAR-5 ovarian = tested on: OVCAR-5 ovarian
OVCAR-8 ovarian = tested on: OVCAR-8 ovarian
PC-3 prostate = tested on: PC-3 prostate
RPMI-8226 leukemia = tested on: RPMI-8226 leukemia
RXF 393 renal = tested on: RXF 393 renal
SF-268 CNS = tested on: SF-268 CNS
SF-295 CNS = tested on: SF-295 CNS
SF-539 CNS = tested on: SF-539 CNS
SK-MEL-2 melanoma = tested on: SK-MEL-2 melanoma
SK-MEL-28 melanoma = tested on: SK-MEL-28 melanoma
SK-MEL-5 melanoma = tested on: SK-MEL-5 melanoma
SK-OV-3 ovarian = tested on: SK-OV-3 ovarian
SN12C renal = tested on: SN12C renal
SNB-19 CNS = tested on: SNB-19 CNS
SNB-75 CNS = tested on: SNB-75 CNS
SR leukemia = tested on: SR leukemia
SW-620 colon = tested on: SW-620 colon
T-47D breast = tested on: T-47D breast
TK-10 renal = tested on: TK-10 renal
U251 CNS = tested on: U251 CNS
UACC-257 melanoma = tested on: UACC-257 melanoma
UACC-62 melanoma = tested on: UACC-62 melanoma
UO-31 renal = tested on: UO-31 renal

CN(Cc1ccc(F)cc1)c1ccc(CO)c(Cl)c1
GI50 (786-0 renal): 10.5 µM | TGI (786-0 renal): 30.4 µM | GI50 (A498 renal): 0.0507 µM | TGI (A498 renal): 0.174 µM | GI50 (A549 NSCLC): 5.54 µM | TGI (A549 NSCLC): > 60.1 µM | GI50 (ACHN renal): 28.9 µM | TGI (ACHN renal): > 100 µM | GI50 (BT-549 breast): 12.3 µM | TGI (BT-549 breast): 39.9 µM | GI50 (CAKI-1 renal): 2.49 µM | TGI (CAKI-1 renal): 45.8 µM | GI50 (CCRF-CEM leukemia): 28.9 µM | TGI (CCRF-CEM leukemia): > 100 µM | GI50 (COLO 205 colon): 5.86 µM | TGI (COLO 205 colon): 19.8 µM | GI50 (DU-145 prostate): 29.1 µM | TGI (DU-145 prostate): > 100 µM | GI50 (EKVX NSCLC): 26.9 µM | TGI (EKVX NSCLC): > 100 µM | GI50 (HCC-2998 colon): 14.9 µM | TGI (HCC-2998 colon): 57 µM | GI50 (HCT-116 colon): 0.412 µM | TGI (HCT-116 colon): 11.9 µM | GI50 (HCT-15 colon): 18.3 µM | TGI (HCT-15 colon): > 100 µM | GI50 (HL-60(TB) leukemia): 12.5 µM | TGI (HL-60(TB) leukemia): 54 µM | GI50 (HOP-62 NSCLC): 5.13 µM | TGI (HOP-62 NSCLC): > 87.6 µM | GI50 (HOP-92 NSCLC): 3.87 µM | TGI (HOP-92 NSCLC): 24 µM | GI50 (HS 578T breast): 27.4 µM | TGI (HS 578T breast): 97.3 µM | GI50 (HT29 colon): 8.38 µM | TGI (HT29 colon): 67.1 µM | GI50 (IGROV1 ovarian): 0.476 µM | TGI (IGROV1 ovarian): 3.47 µM | GI50 (K-562 leukemia): 7.99 µM | TGI (K-562 leukemia): > 100 µM | GI50 (KM12 colon): 27.1 µM | TGI (KM12 colon): > 76.9 µM | GI50 (LOX IMVI melanoma): 22.9 µM | TGI (LOX IMVI melanoma): > 68.9 µM | GI50 (M14 melanoma): 23.3 µM | TGI (M14 melanoma): > 76.9 µM | GI50 (MALME-3M melanoma): 24.5 µM | TGI (MALME-3M melanoma): 71.9 µM | GI50 (MCF7 breast): 1.23 µM | TGI (MCF7 breast): 21.5 µM | GI50 (MDA-MB-231 breast): 28.7 µM | TGI (MDA-MB-231 breast): > 100 µM | GI50 (MDA-MB-435): 44.7 µM | TGI (MDA-MB-435): > 100 µM | GI50 (MOLT-4 leukemia): 21.8 µM | TGI (MOLT-4 leukemia): 69.3 µM | GI50 (NCI-H226 lung): 0.126 µM | TGI (NCI-H226 lung): 0.278 µM | GI50 (NCI-H23 lung): 11.6 µM | TGI (NCI-H23 lung): > 72.7 µM | GI50 (NCI-H460 lung): 1.41 µM | TGI (NCI-H460 lung): 13.9 µM | GI50 (NCI-H522 lung): 26.5 µM | TGI (NCI-H522 lung): 97.3 µM | GI50 (NCI/ADR-RES ovarian): 17.7 µM | TGI (NCI/ADR-RES ovarian): > 64.3 µM | GI50 (OVCAR-3 ovarian): 3.55 µM | TGI (OVCAR-3 ovarian): 15 µM | GI50 (OVCAR-4 ovarian): 2.22 µM | TGI (OVCAR-4 ovarian): 19.7 µM | GI50 (OVCAR-5 ovarian): 0.426 µM | TGI (OVCAR-5 ovarian): 2.37 µM | GI50 (OVCAR-8 ovarian): 20.7 µM | TGI (OVCAR-8 ovarian): > 100 µM | GI50 (PC-3 prostate): 20.3 µM | TGI (PC-3 prostate): > 68.3 µM | GI50 (RPMI-8226 leukemia): 12.4 µM | TGI (RPMI-8226 leukemia): 60.6 µM | GI50 (RXF 393 renal): 9.12 µM | TGI (RXF 393 renal): > 59 µM | GI50 (SF-268 CNS): 37.8 µM | TGI (SF-268 CNS): > 100 µM | GI50 (SF-295 CNS): 3.38 µM | TGI (SF-295 CNS): > 62.3 µM | GI50 (SF-539 CNS): 40.7 µM | TGI (SF-539 CNS): > 100 µM | GI50 (SK-MEL-2 melanoma): 8.32 µM | TGI (SK-MEL-2 melanoma): 33.8 µM | GI50 (SK-MEL-28 melanoma): 31.3 µM | TGI (SK-MEL-28 melanoma): > 100 µM | GI50 (SK-MEL-5 melanoma): 8.6 µM | TGI (SK-MEL-5 melanoma): 22.8 µM | GI50 (SK-OV-3 ovarian): 12.2 µM | TGI (SK-OV-3 ovarian): 70.9 µM | GI50 (SN12C renal): 23.2 µM | TGI (SN12C renal): > 100 µM | GI50 (SNB-19 CNS): 38.3 µM | TGI (SNB-19 CNS): > 100 µM | GI50 (SNB-75 CNS): 18.4 µM | TGI (SNB-75 CNS): 89.5 µM | GI50 (SR leukemia): 20.3 µM | TGI (SR leukemia): 73.8 µM | GI50 (SW-620 colon): 5.14 µM | TGI (SW-620 colon): > 100 µM | GI50 (T-47D breast): 0.667 µM | TGI (T-47D breast): 4.16 µM | GI50 (TK-10 renal): 0.203 µM | TGI (TK-10 renal): 0.825 µM | GI50 (U251 CNS): 4.63 µM | TGI (U251 CNS): 68.5 µM | GI50 (UACC-257 melanoma): 0.439 µM | TGI (UACC-257 melanoma): 1.66 µM | GI50 (UACC-62 melanoma): 0.323 µM | TGI (UACC-62 melanoma): 3.32 µM | GI50 (UO-31 renal): 7.53 µM | TGI (UO-31 renal): > 65.1 µM

O=c1[nH]nc(-c2ccccc2)n1/N=C/c1cccc([N+](=O)[O-])c1
TGI (786-0 renal): > 100 µM | TGI (A498 renal): > 100 µM | TGI (A549 NSCLC): > 100 µM | TGI (ACHN renal): > 100 µM | TGI (BT-549 breast): > 100 µM | TGI (CAKI-1 renal): > 100 µM | TGI (CCRF-CEM leukemia): > 100 µM | TGI (COLO 205 colon): > 100 µM | TGI (DU-145 prostate): > 100 µM | TGI (EKVX NSCLC): > 100 µM | TGI (HCC-2998 colon): > 100 µM | TGI (HCT-116 colon): > 100 µM | TGI (HCT-15 colon): > 100 µM | TGI (HL-60(TB) leukemia): > 100 µM | TGI (HOP-62 NSCLC): > 100 µM | TGI (HOP-92 NSCLC): > 100 µM | TGI (HS 578T breast): > 100 µM | TGI (HT29 colon): > 100 µM | TGI (IGROV1 ovarian): > 100 µM | TGI (K-562 leukemia): > 100 µM | TGI (KM12 colon): > 100 µM | TGI (LOX IMVI melanoma): > 100 µM | TGI (M14 melanoma): > 100 µM | TGI (MALME-3M melanoma): > 100 µM | TGI (MCF7 breast): > 100 µM | TGI (MDA-MB-231 breast): > 100 µM | TGI (MDA-MB-435): > 100 µM | TGI (MOLT-4 leukemia): > 100 µM | TGI (NCI-H226 lung): > 100 µM | TGI (NCI-H23 lung): > 100 µM | TGI (NCI-H460 lung): > 100 µM | TGI (NCI-H522 lung): > 100 µM | TGI (NCI/ADR-RES ovarian): > 100 µM | TGI (OVCAR-3 ovarian): > 100 µM | TGI (OVCAR-4 ovarian): > 100 µM | TGI (OVCAR-5 ovarian): > 100 µM | TGI (OVCAR-8 ovarian): > 100 µM | TGI (PC-3 prostate): > 100 µM | TGI (RPMI-8226 leukemia): > 100 µM | TGI (RXF 393 renal): > 100 µM | TGI (SF-268 CNS): > 100 µM | TGI (SF-295 CNS): > 100 µM | TGI (SF-539 CNS): > 100 µM | TGI (SK-MEL-2 melanoma): > 100 µM | TGI (SK-MEL-28 melanoma): > 100 µM | TGI (SK-MEL-5 melanoma): > 100 µM | TGI (SK-OV-3 ovarian): > 100 µM | TGI (SN12C renal): > 100 µM | TGI (SNB-19 CNS): > 100 µM | TGI (SNB-75 CNS): > 100 µM | TGI (SR leukemia): > 100 µM | TGI (SW-620 colon): > 100 µM | TGI (T-47D breast): > 100 µM | TGI (TK-10 renal): > 100 µM | TGI (U251 CNS): > 100 µM | TGI (UACC-257 melanoma): > 100 µM | TGI (UACC-62 melanoma): > 100 µM | TGI (UO-31 renal): > 100 µM

From PubChem BioAssay (NCI)
